Laboratory results taken from patent publication US6787569B1, “Therapeutic guanidines” (Cambridge NeuroScience, Inc., priority 1994, dated 2004).
Structures can show the parent of a compound that is named as a salt. Where two headings read alike, the source gives them in different places.

How the values were obtained:
[1] = target: Type II neuronal voltage-activated sodium channels (Rattus norvegicus, UniProt P04775); assay: cell-based
[2] = system: depolarization-induced 3H-glutamate release from brain nerve terminals; assay: Inhibition of 3H-glutamate release, high [K+] depolarization, rapid superfusion of synaptosomes; format: biochemical; conditions: rat brain synaptosomes; for % Inhibition of ^3H-Glu Rel @ 1 μM: 1 μM compound; for % Inhibition of ^3H-Glu Rel @ 3 μM: 3 μM compound
[3] = system: presynaptic Ca channels; assay: Inhibition of 45Ca uptake through presynaptic Ca channels in brain synaptosomes; format: biochemical, mammalian; conditions: high K+ depolarization-induced 45Ca uptake, read-out: IC50, block of ^45Ca uptake
Protocol: Compounds of the invention were tested to determine their ability to inhibit voltage-activated calcium channels in nerve terminals of mammalian brain. Said voltage-activated calcium channels directly control neurotransmitter release (see Nachsen, D. A. et al., J. Gen Physiol., 79:1065-1087 (1982)). The uptake of ^45Ca into brain synaptosomes was performed by an adaptation of the method of Nachsen and Blaustein (J. Physiol., 361:251-258 (1985)), as previously described [Goldin et al., PCT/US92/01050]. The principle of the method involves opening ion permeation through synaptosomal calcium channels by high K^+-induced depolarization of the synaptosomal preparation. The rapid component of ^45Ca uptake measured by this procedure is mediated by presynaptic calcium channels.
Briefly, synaptosomes are prepared by the method of Hajos (Brain Res., 93:485-489 (1975)). Freshly prepared synaptosomes (8 μl) were suspended In low potassium “LK” buffer (containing 3 mM KCl). Test compounds in 8 μl LK were added to synaptosomes to final concentrations ranging from 0.3 μM to 100 μM, and the mixture was preincubated for 5 minutes at room temperature. ^45Ca uptake was then initiated by adding isotope in either LK or in buffer (“HK”) containing high [potassium] (150 mM KCl). After 5 seconds, the ^45Ca uptake was stopped by adding 0.9 ml quench buffer (LK+10 mM EGTA). This solution was then filtered under vacuum and the filters washed with 15 ml of quench buffer.
Washed filters were subjected to scintillation spectrophotometry to determine the extent of ^45Ca uptake. Net depolarization-induced ^45Ca uptake was determined for each concentration of each compound tested, as the difference between ^45Ca uptake in HK and LK buffers. Results were plotted as % inhibition of depolarization-induced ^45Ca uptake vs. [compound] for each compound tested. Representative IC50 for inhibition of depolarization-induced ^45Ca uptake are presented below in the tables (2a-2d) below which together are identified as Table 2.

[4] = system: L-type Ca channels; assay: Inhibition of 45Ca uptake through L-type (dihydropyridine-sensitive) calcium channels in GH4C1 pituitary cells; format: cell-based; conditions: high K+ depolarization-induced 45Ca uptake, read-out: IC50, block of ^45Ca uptake
Protocol: Compounds of the invention representative of each of the major classes of agents claimed herein were tested to determine their ability to inhibit voltage-activated, dihydropyridine-sensitive L-type calcium channels in clonal GH4C1 pituitary cells. Said voltage-activated L-type calcium channels are found in cardiac muscle, vascular smooth muscle, and the cardiac Purkije cell conduction system. They are the sites of action of the major classes of Ca antagonists employed to treat hypertension, angina, cardiac arrhythmias, and related disorders. L-type Ca channels are also the sites of action of certain neuroprotective dihydropyridine Ca antagonists such as nimodipine.
The uptake of ^45Ca into GH4C1 cells was performed by an adaptation of the method of Tan, K. et al. (J. Biol. Chem., 259:418-426 (1984)). The principle of the method involves activating ion permeation through synaptosomal calcium channels by high K^+-induced depolarization of the synaptosomal preparation. The uptake of ^45Ca measured by this procedure is mediated by presynaptic L-type calcium channels, and is sensitive to dihydropyridine, phenylalkylamine, and benzothiazipine Ca antagonists at therapeutically relevant concentrations [Tashjian et al., ibid.]. The adaptation of the aforementioned method involves growing GH4C1 cells in 96-well culture plates, and is designed to provide a rapid and quantitative determination of the potency of various compounds in inhibiting ^45Ca uptake through L-type Ca channels.
GH4 cells, stored in liquid nitrogen, are suspended in 15 ml growth medium (Ham's F-10 medium plus 15% heat-inactivated horse serum and 2.5% heat-inactivated fetal bovine serum). The cells are centrifuged, resuspended, and then added to T-75 flasks containing 12-15 mls Growth Medium, and incubated at 37° C. for approximately 1 week. The cells are them removed from the T75 flask after dissociation from the walls of the flask by treatment for 5 minutes at 37° C. with 1 mg/ml Viocase. The Viocase is decanted, and the cells are resuspended in ˜200 ml of Growth Medium. The cells are then aliquoted (200 μl/well) into each well of several 96 well plates. The cells are then grown under the aforementioned conditions for 3-4 weeks, with replacement of Growth Medium occurring twice per week. Cells are fed growth medium 24 hours before they are employed for ^45Ca uptake determinations.
At the time of the assay, media Is aspirated from each 96-well plate using a manifold designed to allow 50 μL of liquid to remain in each well. Each plate is washed and aspirated twice with a low K^+ buffer solution “LKHBBS” (in mM 5 KCl, 145 NaCl, 10 Hepes, 1 MgCl2, […], 10 glucose, pH 7.4), 200 μl/well. Each plate is incubated for 10 minutes at 37° C., and aspirated as above. To each well of each plate, 50 μl of HBBS containing the drug to be tested in twice the final concentration is added. The plates are incubated for 10 minutes at room temperature. To each well of each plate, 50 μl of either of two solutions are added:
(a) LKHBBS containing 1 μCi of carrier-free ^45Ca, or
(b) HKHBBS (a high K^+ buffer containing 150 mM KCl and no NaCl, but otherwise identical to LKHBBS).
Each plate is then incubated for 5 minutes at room temperature, aspirated as above, and quenched with 200 μl/well of Quench Buffer (Ca-free LKHBBS containing 10 mM Tris-EGTA). Each plate is aspirated and rinsed with Quench Buffer a second time, then carefully aspirated to dryness. To each well of each plate 100 μl of High Safe II scintillation fluid is added. The plates are sealed, shaken, and subjected to scintillation spectrophotometry on a Microbeta 96-well Scintillation Counter (Wallac, Gaithersburg, Md., USA).
Net depolarization-induced ^45Ca uptake was determined for each concentration of each compound tested, as the difference between ^45Ca uptake in HKBBS and LK buffers. Results were plotted as % inhibition of depolarization-induced ^45Ca uptake vs. [compound] for each compound tested.

[5] = system: veratridine-induced 3H-glutamate release from brain nerve terminals (voltage-activated presynaptic Na channels); assay: Inhibition of veratridine-induced 3H-glutamate release, rapid superfusion of synaptosomes; format: biochemical, rat
[6] = system: audiogenic seizures in DBA/2 mice; assay: In vivo anticonvulsant activity in the DBA/2 mouse model (audiogenic seizures); conditions: 30 minutes prior to auditory stimulus
Protocol: Compounds were tested for their effectiveness in preventing seizures in DBA/2 mice which have a unique sensitivity to auditory stimulation. Exposure to loud high-frequency sounds can trigger seizure activity in these animals. This sensitivity develops from postnatal day 12 and peaks around day 21 and slowly diminishes as the animals mature. The unusual response to auditory stimulation in this strain of mouse is believed to be due to a combination of early myelination (causing an unusually low excitatory threshold) and delayed development of inhibitory mechanisms. Glutamate, the predominant excitatory neurotransmitter, has been implicated in this response. Blockade of glutamate receptors of the NMDA and AMPA subtypes, prevents audiogenic seizures in these mice. Compounds that block the release of glutamate should similarly act to prevent seizure activity, and may be therapeutic in other neurologic disorders such as stroke, which also involves glutamate-mediated damage.
Mice were injected intraperitoneally with the compound specified in Table V below or with vehicle control, 30 minutes prior to being placed in a bell jar and turning on the auditory stimulus (12 KHz sine wave at 110-120 db). Administered doses are specified in Table V as milligram of compound per kilogram bodyweight of mouse. The auditory stimulus was left on for 60 seconds and mice reactions were timed and recorded.
Percentage inhibition was determined with reference to vehicle controls.

[7] = veratridine (100 μM)-induced, tetrodotoxin-sensitive uptake, CHO cells expressing rat brain Type II Na channels, read-out: IC50, block of ^14C guanidinium uptake

Sequence of Type II neuronal voltage-activated sodium channels (P04775 whole entry, the tested form may be a part): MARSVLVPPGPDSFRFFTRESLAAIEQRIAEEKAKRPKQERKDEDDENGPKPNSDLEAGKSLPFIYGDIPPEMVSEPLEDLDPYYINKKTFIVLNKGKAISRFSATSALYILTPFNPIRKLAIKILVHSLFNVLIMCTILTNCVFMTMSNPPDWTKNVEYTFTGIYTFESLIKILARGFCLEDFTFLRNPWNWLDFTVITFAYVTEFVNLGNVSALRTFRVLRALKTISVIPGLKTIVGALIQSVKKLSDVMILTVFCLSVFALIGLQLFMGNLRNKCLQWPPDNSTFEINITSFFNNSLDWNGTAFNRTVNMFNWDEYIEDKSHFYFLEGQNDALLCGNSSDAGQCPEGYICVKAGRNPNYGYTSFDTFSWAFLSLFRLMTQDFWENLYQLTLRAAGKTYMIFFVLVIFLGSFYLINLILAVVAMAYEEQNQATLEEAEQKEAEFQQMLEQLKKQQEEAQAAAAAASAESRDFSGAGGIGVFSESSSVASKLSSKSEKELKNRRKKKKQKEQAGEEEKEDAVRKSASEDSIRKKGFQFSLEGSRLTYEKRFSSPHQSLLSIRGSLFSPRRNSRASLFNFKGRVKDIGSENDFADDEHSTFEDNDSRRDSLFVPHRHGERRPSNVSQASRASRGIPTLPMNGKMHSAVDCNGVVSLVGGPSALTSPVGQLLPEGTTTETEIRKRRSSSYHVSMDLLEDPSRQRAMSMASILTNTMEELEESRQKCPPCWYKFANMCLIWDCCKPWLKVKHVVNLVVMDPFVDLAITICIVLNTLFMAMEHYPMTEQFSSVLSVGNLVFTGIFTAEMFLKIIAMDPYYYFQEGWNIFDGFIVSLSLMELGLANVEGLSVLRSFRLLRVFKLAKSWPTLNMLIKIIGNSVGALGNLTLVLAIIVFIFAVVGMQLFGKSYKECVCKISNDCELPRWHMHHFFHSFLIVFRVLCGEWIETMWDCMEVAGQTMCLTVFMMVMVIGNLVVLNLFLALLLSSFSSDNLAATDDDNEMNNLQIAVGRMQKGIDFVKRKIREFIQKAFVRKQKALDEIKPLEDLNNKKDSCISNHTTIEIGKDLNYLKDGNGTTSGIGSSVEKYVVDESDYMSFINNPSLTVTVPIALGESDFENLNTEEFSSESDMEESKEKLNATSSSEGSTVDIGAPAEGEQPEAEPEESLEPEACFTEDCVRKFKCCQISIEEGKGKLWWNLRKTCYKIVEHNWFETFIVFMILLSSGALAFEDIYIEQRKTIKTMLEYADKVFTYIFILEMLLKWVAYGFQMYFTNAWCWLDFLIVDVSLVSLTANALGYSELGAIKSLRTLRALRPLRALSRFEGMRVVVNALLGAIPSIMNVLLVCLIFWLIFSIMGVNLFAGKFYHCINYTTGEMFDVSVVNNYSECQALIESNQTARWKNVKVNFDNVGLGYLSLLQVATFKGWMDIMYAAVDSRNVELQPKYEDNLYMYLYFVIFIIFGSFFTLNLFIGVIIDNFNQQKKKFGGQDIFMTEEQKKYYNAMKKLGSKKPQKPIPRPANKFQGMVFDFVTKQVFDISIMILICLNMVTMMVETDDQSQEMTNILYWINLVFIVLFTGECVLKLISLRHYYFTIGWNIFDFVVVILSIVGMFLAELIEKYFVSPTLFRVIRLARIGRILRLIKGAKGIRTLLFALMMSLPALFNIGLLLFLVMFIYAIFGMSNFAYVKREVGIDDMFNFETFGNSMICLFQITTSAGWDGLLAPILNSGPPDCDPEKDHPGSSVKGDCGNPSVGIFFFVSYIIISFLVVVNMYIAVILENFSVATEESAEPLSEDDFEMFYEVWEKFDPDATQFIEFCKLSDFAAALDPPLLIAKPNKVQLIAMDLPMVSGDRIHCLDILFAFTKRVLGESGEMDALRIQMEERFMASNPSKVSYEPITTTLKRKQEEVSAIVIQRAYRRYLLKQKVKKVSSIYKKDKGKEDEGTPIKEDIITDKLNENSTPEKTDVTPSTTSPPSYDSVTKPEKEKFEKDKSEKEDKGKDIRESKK

In the case of `CCC(C)c1ccc(NC(=N)Nc2ccc(C(C)CC)cc2)cc1` (stereo not shown) [Example 4, N,N′-bis(4-sec-Butylphenyl)guanidine.HCl], the IC50 [1, 7] is reported as 800 nM, the “% Inhibition of ^3H-Glu Rel @ 1 μM” value [2] is reported as 52% and the “% Inhibition of ^3H-Glu Rel @ 3 μM” value [2] is reported as 85%. The IC50 [3] was 11200 nM and the IC50 [4] was 2100 nM.
`CCC(C)c1ccc(N(C)C(=N)N(C)c2ccc(C(C)CC)cc2)cc1` (stereo not shown) [Example 6] was tested, and the IC50 [1] was 600 nM, the “% Inhibition of ^3H-Glu Rel @ 1 μM” value [2] was 71% and the “% Inhibition of ^3H-Glu Rel @ 3 μM” value [2] was 92%. The IC50 [3] was 5900 nM and the IC50 [4] was 4300 nM.
For `Br.N=C(Nc1ccc2c3c(cccc13)-c1ccccc1-2)Nc1ccc2c3c(cccc13)-c1ccccc1-2` [Example 9, N-N′-Bis(3-fluoroanthenyl)guanidine hydrobromide], the “% Inhibition of ^3H-Glu Rel @ 3 μM (*veratridine-induced glutamate release assay)” value [5] was 17* %, the IC50 [1, 7] was 700 nM and the IC50 [3] was 7800 nM.
In the case of `CC(C)(C)c1ccc(NC(=N)Nc2ccc(C(C)(C)C)cc2)cc1` [Example 13, N,N′-Bis(4-tort-butylphenyl)guanidine], the “% Inhibition of ^3H-Glu Rel @ 1 μM (*veratridine-induced glutamate release assay)” value [5] is reported as 62* %, the IC50 [1, 7] is reported as 900 nM and the “% Inhibition of ^3H-Glu Rel @ 3 μM” value [2] is reported as 70%. It also gave an IC50 [3] of 1500 nM and an IC50 [4] of 4100 nM.
`COc1ccc(NC(=N)Nc2ccc(Cl)c(Cl)c2Cl)c2ccccc12.Cl` [Example 15, N-(4-Methoxy-1-naphthyl)-N′-(2,3,4-trichlorophenyl)guanidine.HCl] was tested, and the “% Inhibition of ^3H-Glu Rel @ 3 μM” value [2] was 88%, the IC50 [3] was 1700 nM and the IC50 [4] was 1700 nM.
In the case of `CCC(C)c1ccc(N(Cc2ccc(C(C)(C)C)cc2)C(=N)N)cc1` (stereo not shown) [Example 1, N-(4-sec-Butylphenyl)-N-(4-tert-butylbenzyl)guanidine.HCl], the “% Inhibition of ^3H-Glu Rel @ 1 μM (*veratridine-induced glutamate release assay)” value ([5]; 1 μM compound, 50 μM veratridine-induced release, rat brain synaptosomes) is reported as 67* %, the IC50 [1] is reported as 800 nM and the “% Inhibition of ^3H-Glu Rel @ 3 μM” value [2] is reported as 61%. The IC50 [3] was 6100 nM, the “Audiogenic Response % Inhib.” value ([6]; 10 mg/kg intraperitoneally) was 54% and the “Audiogenic Response % Inhib.” value ([6]; 20 mg/kg intraperitoneally) was 80.5%. The “Audiogenic Response % Inhib.” value ([6]; 40 mg/kg intraperitoneally) was 91% and the IC50 [4] was 1700 nM.
In the case of `CC(C)(C)c1ccc(CN(C(=N)N)c2ccc3c4c(cccc24)CC3)cc1` [Example 2], the IC50 [1, 7] is reported as 1000 nM, the “% Inhibition of ^3H-Glu Rel @ 1 μM” value [2] is reported as 52% and the “% Inhibition of ^3H-Glu Rel @ 3 μM” value [2] is reported as 61%. It also gave an IC50 [3] of 8100 nM and an IC50 [4] of 2100 nM.
